From US20040009507A1, “Concatenated nucleic acid sequence” (Domantis, Ltd., priority 2000, published 2004)
Positions of bridges follow the written chain, without caps; N, C: chain ends. Residues, ends and D or L forms follow the SMILES beside them.

Assays:
[1] = molecular target: T1, EC-EpoR-Fc (Homo sapiens, UniProt P19235); assay: Competition ELISA with synthetic trMP peptide, phage binding to immobilised EC-EpoR-Fc
T1 construct: (EC-EpoR, amino acids 1 to 225); made in house; host or cells: Pichia pastoris X-33 (pPICZαA, secreted)
T1 sequence (P19235 25-249): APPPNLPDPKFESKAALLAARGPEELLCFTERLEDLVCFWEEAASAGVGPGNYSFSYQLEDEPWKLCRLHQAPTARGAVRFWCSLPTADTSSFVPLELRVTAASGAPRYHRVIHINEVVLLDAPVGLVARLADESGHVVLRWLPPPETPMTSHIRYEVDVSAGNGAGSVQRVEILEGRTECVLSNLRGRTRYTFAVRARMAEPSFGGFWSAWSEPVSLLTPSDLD
Procedure: Without a crystal structure of the MP/Ec-EpoR-Fc complex, it is however unclear whether the contribution of an MP residue in these parts to EC-EpoR-Fc binding is related to direct peptide-receptor interaction or to intra-molecular interactions. In an attempt to delineate the MP peptide binding site on EC-EpoR-Fe, a competition ELISA using a synthetic truncated version of the MP peptide (trMP, from A3 to Y28) was performed. […] A similar result (i.e. binding outside the biological ligand-binding site) has been reported for the symmetrical molecule SB-247464 which recognises the homodimeric G-CSF receptor (Tian et al., 1998). Large and complex proteins with modular architecture indeed appear to have multiple ligand-binding sites located at the slits between symmetrical modules.
For competition ELISA with synthetic trMP peptide (see below), serial dilutions of MP peptide (starting from 1 mM) were mixed with 2.5×10^8 phage in 2% MPBS, then added to pre-blocked EC-EpoR-Fc-coated wells for 2 hours. Bound phage were detected as described above. […] Bound EC-EpoR-Fc was detected with protein A-horseradish peroxidase conjugate ( 1/4000 dilution, Sigma), and o-phenylene diamine dihydrochloride (OPD) as substrate. After 10-15 minutes, the reactions were stopped with 50 μl of 4 N H2SO4 and absorbances were measured at 492 nm.

[2] = molecular target: T2, ferritin (Equus caballus, UniProt P02791+Q8MIP0); assay: Apparent dissociation constant of n-unit HKPRKE MBP fusions for ferritin; set-up: species or system horse; conditions: n-unit of HKPRKE motif fused to maltose-binding protein
T2 construct: ferritin (from horse spleen, Sigma cat. F-4503); purchased Sigma F-4503; host or cells: horse spleen
T2 sequence (P02791 2-175 limits assumed): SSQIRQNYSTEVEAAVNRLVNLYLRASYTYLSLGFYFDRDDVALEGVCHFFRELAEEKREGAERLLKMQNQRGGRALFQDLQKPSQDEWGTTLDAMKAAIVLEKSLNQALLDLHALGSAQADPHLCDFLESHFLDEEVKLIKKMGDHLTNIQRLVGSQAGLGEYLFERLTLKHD
T2 sequence (Q8MIP0 whole entry, the tested form may be a part): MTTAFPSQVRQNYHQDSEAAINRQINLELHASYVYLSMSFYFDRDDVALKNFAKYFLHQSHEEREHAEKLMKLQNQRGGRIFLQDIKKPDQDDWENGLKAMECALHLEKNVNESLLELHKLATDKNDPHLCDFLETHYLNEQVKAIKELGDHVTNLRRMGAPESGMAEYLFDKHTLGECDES
Text: In contrast, the results from the Fd-1×6-mer, Fd-2×6-mer, and Fd-4×6-mer peptide libraries indicate that concatenation is crucial to reach the selection threshold for binding to ferritin. […] By competition ELISA, we observed that these peptide constructs had affinities to ferritin very similar to that of peptide F6. […] In a randomised polypeptide, the likelihood that down-mutations will offset up-mutations increases with its length, so that ultimately most longer polypeptides will have average sequence profiles. […]
For competition ELISA with ferritin-binding peptide, serial dilutions of MBP-fusions (see below) were incubated with 10 nM biotinylated ferritin in 2% MPBS overnight at 4° C., then added to pre-blocked MBP-(HKPRKE)8-coated wells for 30 min. Bound biotinylated ferritin was detected by incubation with streptavidin horseradish peroxidase conjugate (Sigma) and OPD.
Apparent dissociation constants were calculated using the BIAevaluation program and the 1:1 Langmuir dissociation model from sensorgrams (BIAcore) collected upon immobilisation of 200-400 resonance units (RU) of biotinylated ligands (sEPOR-Fc or MBP-fusion) on SA-sensor chips followed by injection of various analytes (sEPOR-Fc, MBP-fusion, 0.1 to 2 μM concentration range) diluted in HBS-EP buffer (BIAcore), at a flow rate of 80 μl/min at 25° C.

Compound | IC50 ([1]; read-out: IC50 for blocking MP phage-peptide binding to immobilised EC-EpoR-Fc) [µM] | effect on signal of phage displaying the EMP1 peptide ([1]; trMP concentration up to 1 mM) | Kd [2] [µM]
CC(C)C[C@H](NC(=O)[C@@H](NC(=O)[C@H](C)NC(=O)CNC(=O)[C@H](Cc1c[nH]cn1)NC(=O)[C@@H]1CSSC[C@H](NC(=O)[C@H](C)N)C(=O)N[C@@H](Cc2c[nH]cn2)C(=O)NCC(=O)N[C@@H](C)C(=O)N[C@@H]([C@@H](C)O)C(=O)N[C@@H](CC(C)C)C(=O)N[C@@H](CCC(=O)O)C(=O)N[C@@H](CCC(N)=O)C(=O)N[C@@H]([C@@H](C)O)C(=O)N[C@@H](Cc2ccc(O)cc2)C(=O)N[C@@H](C)C(=O)N[C@@H](CC(C)C)C(=O)N2CCC[C@H]2C(=O)N[C@@H](CC(C)C)C(=O)N[C@@H](C)C(=O)N1)[C@@H](C)O)C(=O)N[C@@H](CCC(=O)O)C(=O)N[C@@H](CCC(N)=O)C(=O)N[C@H](C(=O)N[C@@H](Cc1ccc(O)cc1)C(=O)O)[C@@H](C)O [trMP, NH2-ACHGATLEQTYALPL ACHGATLEQTY-CO2H] (H-ACHGATLEQTYALPLACHGATLEQTY-OH; disulfide 2-17 (inferred)) | 10 | no reduction in signal | 
(HKPRKE)4 [F6 peptide] |  |  | ~0.5
